Assay results as given in paper PMC6316600, “Analgesic Activity of Acid-Sensing Ion Channel 3 (ASIС3) Inhibitors: Sea Anemones Peptides Ugr9-1 and APETx2 versus Low Molecular Weight Compounds” (Marine Drugs, 2018).
Entries after “also recorded” stand apart in the source; their conditions may differ. Bridge positions count the residues as written; N and C are the ends. Peptide text beside a SMILES is read from it.

What was measured:
human ASIC3 = biological target: T1, human ASIC3 (Homo sapiens, UniProt Q9UHC3); experiment: Inhibition of sustained hASIC3 current, two-electrode voltage clamp, Xenopus laevis oocytes; type: cell-based; conditions: for Hill coefficient, sustained currents / IC50: hASIC3 in X. laevis oocytes, mean ± SEM (n = 4–6); for IC50: compound applied with 3.5 s pH stimulus, holding -50 mV, logistic fit, read-out: IC50, sustained currents
T1 construct: host or cells: Xenopus laevis oocytes (cRNA injection)
T1 sequence (Q9UHC3 1-531): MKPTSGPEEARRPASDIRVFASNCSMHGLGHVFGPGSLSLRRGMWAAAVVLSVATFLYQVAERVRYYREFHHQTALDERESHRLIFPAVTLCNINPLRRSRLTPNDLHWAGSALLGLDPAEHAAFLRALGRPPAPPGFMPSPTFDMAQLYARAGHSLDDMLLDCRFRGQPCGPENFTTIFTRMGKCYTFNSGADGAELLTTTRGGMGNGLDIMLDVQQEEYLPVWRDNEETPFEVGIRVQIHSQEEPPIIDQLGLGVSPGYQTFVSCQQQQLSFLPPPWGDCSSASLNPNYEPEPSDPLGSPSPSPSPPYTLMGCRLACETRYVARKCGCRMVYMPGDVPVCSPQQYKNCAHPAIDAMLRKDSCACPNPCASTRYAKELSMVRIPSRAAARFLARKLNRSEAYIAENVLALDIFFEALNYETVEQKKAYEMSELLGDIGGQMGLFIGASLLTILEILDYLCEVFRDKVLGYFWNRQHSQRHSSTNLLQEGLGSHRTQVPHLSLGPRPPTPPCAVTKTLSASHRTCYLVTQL
From the text: Whole-cell currents were induced by pH drops and recorded at the holding potential −50 mV. (A) Effect of ligands on the transient component of current at conditioning pH 7.8. The control trace is shown first; (B) Effect of ligands on the sustained component at conditioning pH 7.3. The black line is the control trace, and the red line is the trace of activation in the presence of a ligand. Dose-response curves for transient (C) and sustained (D) currents’ inhibitions are shown. Data are shown as mean ± SEM (n = 4–6) and fitted with the logistic equation (solid lines).
The analysis of a sustained component of the current was carried out in a bath solution (pH 7.3) where the transient component of the current was completely desensitized by protons. The pH activation stimulus (3.5 s) was applied in the presence of the testing compound (Figure 1B).
X. laevis oocytes were removed surgically and defolliculated by collagenase (Sigma-Aldrich, Moscow, Russia). Oocytes were injected with 2.5 to 10 ng of human ASIC3 cRNA (AF057711.1). […] To induce transient and/or sustained currents, two different protocols with different conditioning pH were used. Microelectrodes were filled with a 3 M KCl solution. The working buffer solution was ND-96 titrated by NaOH to pH 7.8 or 7.3. The solution for the pH shift was constructed based on the ND-96 solution, in which 5 mM HEPES was replaced with 10 mM acetic acid (pH 4.0) or 10 mM MES (pH 5.5) in a supplementary 0.1% BSA solution. The duration of the activation pulses was 3.5 s.
The analysis of the electrophysiological data was performed using the OriginPro 8.6 programme.

mice = experiment: Acetic acid-induced writhing; type: in vivo, CD-1 mice
Procedure: Acetic acid-induced writhing is based on irritation of tissues and organs of the abdomen by low pH and could be considered the most appropriate test for influence on acid-induced pain. […] It is interesting that the effects of sevanol and Ugr9-1 plateaued at a wide range of doses (0.01–1mg/kg for sevanol and 0.02–1 mg/kg Ugr9-1) (Figure 3C,D).
Figure 3 Effects of ligands in an acetic acid-induced writhing test. […] (A) Efficacy of ASIC3 antagonists at a dose of 1 mg/kg. (B–D) Dose-dependent chart of ligands’ effects: APETx2 (B), sevanol (C), and Ugr9-1 (D). Results are presented as mean ± SEM (n = 8). ** p < 0.01, *** p < 0.001 versus saline group (ANOVA followed by a Tukey’s test).
Adult male CD-1 mice (Animal Breeding Facility Branch of Shemyakin-Ovchinnikov Institute of Bioorganic Chemistry, Russian Academy of Sciences, Pushchino, Russia) weighing 20–25 g were used. Animals that originally passed clinical examination that confirmed no deviations in health were divided into groups (at least eight male mice per group) using the principle of randomization. The average body weight of animals in each group was not statistically different between groups. Animals were housed at room temperature (23 ± 2 °C) and subjected to a 12-h light-dark cycle with food and water available ad libitum. All experiments were performed after receiving approval from the Animal Care and Use Committee of the Branch of the Institute of Bioorganic Chemistry, Russian Academy of Sciences (IBCh RAS) (Pushchino, Russia Federation). The samples were administered intramuscularly 2 h before testing (4 h in the open field test). […]
Separate groups of mice were used. Writhes were caused 2 h after the intramuscular injection of the samples (saline for control mice) with the injection of 0.6% acetic acid in saline (10 mL/kg intraperitoneally). Mice were immediately placed inside transparent glass cylinders, and the latency of a first writhe and the number of writhes were recorded for 15 min.
The data significance in animal tests was determined by an analysis of variance followed by a Tukey’s test. Data are presented as the mean ± SEM.

ASIC3 = conditions: cited from earlier work
From the text: An inhibition of ASIC3 was reported to be an attractive approach to producing analgesia. […] Other nonspecific substances can also influence ASIC3 activity.

[1] = intramuscular, 2 h before, n = 8

SMILES	Rank of potency, sustained component inhibition (human ASIC3)	Inhibition of sustained current (in words) (human ASIC3; conditioning pH 7.3)	Hill coefficient, sustained currents (human ASIC3; conditioning pH 7.3)	inhibition at 50 µM (human ASIC3; pH 7.3, read-out: Inhibition of sustained current amplitude at saturation concentration) [%]	Effective dose, lower than that of APETx2, writhing test (mice; Ugr9-1 versus APETx2) [times]	Writhing test result (in words) (mice; intramuscular, 2 h before)	Dose of maximal effect, writhing test (mice; [1]) [mg/kg]	Inhibition of ASIC3 current components (ASIC3)	inhibition at 3000 µM (human ASIC3; about 3 mM, conditioning pH 7.3, read-out: Inhibition of sustained current amplitude at saturation concentration) [%]	IC50 (human ASIC3; conditioning pH 7.3) [µM]	Maximal effect of reducing pain, writhing test (mice; intramuscular, 2 h before, all doses)	Inhibition of ASIC3 / ASICs currents (ASIC3; sensory neurons and heterologous-expressed ASIC3)	Inhibition of sustained current amplitude at saturation concentration (human ASIC3; about 3 mM, conditioning pH 7.3)	Inhibition of sustained current (in words) (human ASIC3; conditioning pH 7.3, listed as Sevanol)	Inhibition of writhing (mice; 10 mg/kg intramuscular, 2 h before, n = 8) [%]	In vivo effect, compared with peptides (mice; sevanol versus APETx2 and Ugr9-1)	Inhibition of transient and sustained ASIC3 currents (ASIC3)
CC[C@H](C)[C@H](N)C(=O)N[C@@H](CO)C(=O)N[C@H](C(=O)N[C@@H](CC(=O)O)C(=O)N1CCC[C@H]1C(=O)N1CCC[C@H]1C(=O)N[C@H]1CSSC[C@@H](C(=O)NCC(=O)N[C@@H](C)C(=O)N[C@H](C(=O)O)C(C)C)NC(=O)CNC(=O)[C@H](Cc2ccc(O)cc2)NC(=O)[C@H](C)NC(=O)[C@H](CC(=O)O)NC(=O)[C@H](Cc2ccc(O)cc2)NC(=O)[C@H](C(C)C)NC(=O)[C@@H]2CSSC[C@H](NC(=O)[C@H](Cc3ccccc3)NC(=O)[C@H](CCCNC(=N)N)NC1=O)C(=O)N[C@@H](Cc1ccc(O)cc1)C(=O)N[C@@H](Cc1c[nH]cn1)C(=O)N[C@@H](CCCNC(=N)N)C(=O)N[C@@H](CC(=O)O)C(=O)NCC(=O)N[C@@H](CO)C(=O)NCC(=O)N[C@@H](CC(N)=O)C(=O)N2)[C@@H](C)CC [Ugr9-1] (H-ISIDPPCRFCYHRDGSGNCVYDAYGCGAV-OH; disulfide 7-26, 10-19; N-terminus and C-terminus assumed)	Ugr9-1 > sevanol > diclofenac	decreased transient and sustained components of the current	1.74 ± 0.51	~50	10	attenuated the response to the intraperitoneal administration of acetic acid; also recorded: The most stable effect was produced by Ugr9-1, and it was slightly more significant in lower doses (0.002 mg/kg)	0.02	inhibit both components of the ASIC3 current	–	–	–	–	–	–	–	–	–
O=C(O)Cc1ccccc1Nc1c(Cl)cccc1Cl [diclofenac, reference compound]	Ugr9-1 > sevanol > diclofenac	significantly weaker in their inhibitory potency when compared to peptide toxin Ugr9-1	–	–	–	–	–	–	~50	856 ± 106	~ 75%	inhibit ASICs currents directly on sensory neurons and heterologous-expressed ASIC3 channels	–	–	–	–	–
O=C(O)C[C@H](C(=O)O)[C@@H](OC(=O)C1=Cc2cc(O)c(O)cc2[C@@H](c2ccc(O)c(O)c2)[C@@H]1C(=O)O[C@@H](C(=O)O)[C@H](CC(=O)O)C(=O)O)C(=O)O [sevanol]	Ugr9-1 > sevanol > diclofenac	decreased transient and sustained components of the current	2.4 ± 0.4	–	–	attenuated the response to the intraperitoneal administration of acetic acid; also recorded: The efficacy of sevanol was also high	10	–	–	259 ± 39	–	–	approximately 50%	significantly weaker in their inhibitory potency when compared to peptide toxin Ugr9-1	76	almost equipotent effect in vivo	inhibited the amplitude of transient and sustained ASIC3 currents
